From the OPERA property sets (Mansouri et al. 2018)

Row | logP | SMILES
1 | 1.39 | CC(CO)CC(F)(F)F (stereo not given)
2 | 0.71 | CC(O)CC(F)(F)F (stereo not given)
3 | 1.37 | CC(CCO)C(F)(F)F (stereo not given)
4 | 1.61 | CC(CCO)CC(F)(F)F (stereo not given)

The next lines start with the molecule.

Row | SMILES | logP
5 | OCCCC(F)(F)F | 0.9
6 | CCC(O)CCC(F)(F)F (stereo not given) | 1.7
7 | OCCC(F)(F)F | 0.39
8 | OCCCCC(F)(F)F | 1.15
9 | CC(C)(O)C(F)(F)F | 1.04
10 | OCCCCCC(F)(F)F | 1.64
